Read-outs that look alike come from different tables or passages of the source.
Experiments:
yeast α-glucosidase [1] = target: T1, yeast α-glucosidase (Saccharomyces cerevisiae, UniProt P53341); assay: biochemical; conditions: for inhibition at 50 µM: read-out: Inhibition at 50 μM (%), 50 μM
T1 construct: purchased Sigma Aldrich
Method: Berberrubine derivatives will be assayed for yeast α-glucosidase inhibitory activity. The protocol described by Ramadhan et al. will be used[37]. Briefly, yeast α-glucosidase (0.1 U/mL) and substrate (1 mM p-nitrophenyl-α-D-glucopyranoside) were dissolved in 0.1 M phosphate buffer (pH 6.9). A 10 μL test sample was pre-incubated with α-glucosidase (40 μL) at 37 °C for 10 min. A substrate solution (50 μL) was then added to the reaction mixture and incubated at 37 °C for an additional 20 min, and terminated by adding 1 M Na2CO3 solution (100 μL). […] The percentage inhibition of activity was calculated as follows: % Inhibition = [(A0 − A1)/A0] × 100, where: A0 is the absorbance without the sample; A1 is the absorbance with the sample. The IC50 value was deduced from the plot of % inhibition versus the concentration of the test sample.

HepG2 cells = system: HepG2 cells; parameters: method as in PMID 27561717; conditions: cited from earlier work; for glucose consumption (GC): HepG2 cells ref 29
[2] = parameters: method as in doi:10.2217/clp.09.41, PMID 16956957; conditions: cited from earlier work
[3] = parameters: method as in PMID 27020531; conditions: at 20 °C ref 19; cited from earlier work
yeast α-glucosidase [4] = target: T1, yeast α-glucosidase; assay: kinetic study of α-glucosidase inhibition (Lineweaver–Burk plots); assay type: biochemical; conditions: for inhibition type: Lineweaver–Burk plot analysis
Method: To further investigate how these 9-O-berberrubine carboxylates interact with yeast α-glucosidase, the inhibition types of four potential compounds, 9, 26, 28 and 33 were studied by using Lineweaver–Burk plot analysis.
The mode of inhibition of α-glucosidase was determined from Lineweaver–Burk plots. The inhibition type was determined using various concentrations of p-NPG substrate in the absence or presence of compounds at different concentrations. The Ki value was determined from secondary plots of slope versus [I].

[5] = cytotoxicity study with HEK-293 cells (CellTiter 96 AQueous One); assay type: cell-based; conditions: human
Method: HEK-293 cells (ATCC® CRL-1573™) were maintained in growth medium consisting of DMEM (Gibco®, Langley, OK) supplemented with 10% fetal bovine serum (Gibco®, Langley, OK), 100 I.U./ml penicillin (Bio Basic Canada®, Ontario, CA), 100 μg/ml streptomycin (Bio Basic Canada®, Ontario, CA), and 10 mM HEPES (4-(2-hydroxyethyl)-1-piperazineethanesulfonic acid) (Sigma Aldrich®, St. Louis, MO) at 37 °C under 5% CO2.
The cytotoxicity of the active compounds (9, 26, 28 and 33) was tested with HEK-293 cells. The cells were seeded at 1 × 10^4 cells per well into 96-well plates in growth medium and incubated overnight. The compounds were prepared at the indicated concentrations in dimethylsulfoxide (DMSO) and added to the cells. Cells were incubated for 48 h before analyzing the cell viability using CellTiter 96® AQueous One Solution Cell Proliferation Assay kit (Promega, USA) according to manufacturer’s protocol. The plate was read at the A490 by VICTORTM X3 microplate reader (PerkinElmer, USA). The 1%DMSO treated cells as a positive control (100% viability). The CC50 values were calculated from nonlinear regression analysis. Results were reported as means and standard error mean (SEM) from three biological independent experiments.

yeast α-glucosidase [6] = target: yeast α-glucosidase; parameters: method as in PMID 26917220; conditions: cited from earlier work

T1 sequence (P53341 whole entry): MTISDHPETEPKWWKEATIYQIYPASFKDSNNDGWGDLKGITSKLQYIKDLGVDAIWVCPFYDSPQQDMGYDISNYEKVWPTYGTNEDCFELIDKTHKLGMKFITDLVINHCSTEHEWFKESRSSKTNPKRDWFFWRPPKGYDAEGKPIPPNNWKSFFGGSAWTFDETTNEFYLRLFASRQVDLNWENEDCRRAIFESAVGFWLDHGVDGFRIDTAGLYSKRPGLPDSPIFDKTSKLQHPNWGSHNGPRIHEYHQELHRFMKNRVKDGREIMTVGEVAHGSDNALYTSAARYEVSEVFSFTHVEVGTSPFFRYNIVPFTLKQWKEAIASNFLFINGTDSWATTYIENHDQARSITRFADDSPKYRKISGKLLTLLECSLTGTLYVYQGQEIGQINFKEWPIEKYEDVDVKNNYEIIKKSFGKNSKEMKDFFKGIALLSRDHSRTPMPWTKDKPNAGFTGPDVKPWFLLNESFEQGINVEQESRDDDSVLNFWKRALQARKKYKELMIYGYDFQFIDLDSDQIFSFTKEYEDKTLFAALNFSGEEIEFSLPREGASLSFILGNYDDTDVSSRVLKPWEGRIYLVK

Structure (SMILES): COc1ccc2cc3[n+](cc2c1OC)CCc1cc2c(cc1-3)OCO2 [BBR, Berberine, reference compound]
- inhibition at 50 µM (yeast α-glucosidase [1]): < 0%
- glucose consumption (GC) (HepG2 cells): 5.04 mM
- bioavailability [2]: less than 5%
- aqueous solubility [3]: ~ 1.8 mg/mL

Structure (SMILES): COc1ccc2cc3[n+](cc2c1OC(=O)c1ccccc1OCc1ccccc1)CCc1cc2c(cc1-3)OCO2.[Cl-] [Compound 9, 9-((2-(benzyloxy)benzoyl)oxy)-10-methoxy-5,6-dihydro-[1,3]dioxolo[4,5-g]isoquinolino[3,2-a]isoquinolin-7-ium chloride]
- IC50 (yeast α-glucosidase [1]; read-out: IC50): 2.29 ± 0.08 µM
- inhibition at 50 µM (yeast α-glucosidase [1]): 100%
- inhibition type (yeast α-glucosidase [4]): competitive
- CC50 at 48 h [5]: 30.5 µM

Structure (SMILES): COc1ccc2cc3[n+](cc2c1OC(=O)c1cc(C(C)(C)C)cc(C(C)(C)C)c1)CCc1cc2c(cc1-3)OCO2.[Cl-] [Compound 26, 9-((3,5-di-tert-butylbenzoyl)oxy)-10-methoxy-5,6-dihydro-[1,3]dioxolo[4,5-g]isoquinolino[3,2-a]isoquinolin-7-ium chloride]
- IC50 (yeast α-glucosidase [1]): 1.61 ± 0.08 µM
- inhibition at 50 µM (yeast α-glucosidase [1]): 99.8%
- Ki (yeast α-glucosidase [4]): 10.7 µM
- inhibition type (yeast α-glucosidase [4]): competitive
- CC50 at 48 h [5]: 18.2 µM

Structure (SMILES): COc1ccc2cc3[n+](cc2c1OC(=O)c1ccc2ccccc2c1)CCc1cc2c(cc1-3)OCO2.[Cl-] [Compound 28, 9-((2-naphthoyl)oxy)-10-methoxy-5,6-dihydro-[1,3]dioxolo[4,5-g]isoquinolino[3,2-a]isoquinolin-7-ium chloride]
- IC50 (yeast α-glucosidase [1]; read-out: IC50): 2.63 ± 0.23 µM
- inhibition at 50 µM (yeast α-glucosidase [1]): 95.7%
- inhibition type (yeast α-glucosidase [4]): competitive
- Ki (yeast α-glucosidase [4]; secondary plots of slope versus [I], read-out: inhibition constants (Ki)): 25.3 µM
- CC50 at 48 h [5]: 20.9 µM

Structure (SMILES): COc1ccc2cc3[n+](cc2c1OC(=O)C=Cc1ccccc1)CCc1cc2c(cc1-3)OCO2.[Cl-] [Compound 29, 9-(cinnamoyloxy)-10-methoxy-5,6-dihydro-[1,3]dioxolo[4,5-g]isoquinolino[3,2-a]isoquinolin-7-ium chloride]
- IC50 (yeast α-glucosidase [1]): 15.1 ± 0.6 µM
- inhibition at 50 µM (yeast α-glucosidase [1]): 88.5%
- glucose consumption (GC) (HepG2 cells): 6.73 mM
- cytotoxicity (HepG2 cells; compared with berberine ref 29): lower than berberine

Structure (SMILES): COc1ccc2cc3[n+](cc2c1OC(=O)/C=C/c1c(Cl)cccc1Cl)CCc1cc2c(cc1-3)OCO2 [Compound 32, (E)-9-((3-(2,6-dichlorophenyl)acryloyl)oxy)-10-methoxy-5,6-dihydro-[1,3]dioxolo[4,5-g]isoquinolino[3,2-a]isoquinolin-7-ium chloride]
- IC50 (yeast α-glucosidase [1]): 16 ± 0.67 µM
- inhibition at 50 µM (yeast α-glucosidase [1]): 94.8%

Structure (SMILES): COc1ccc2cc3[n+](cc2c1OC(=O)/C=C/C=C/c1ccc2c(c1)OCO2)CCc1cc2c(cc1-3)OCO2.[Cl-] [Compound 33, 9-(((2E,4E)-5-(benzo[d][1,3]dioxol-5-yl)penta-2,4-dienoyl)oxy)-10-methoxy-5,6-dihydro-[1,3]dioxolo[4,5-g]isoquinolino[3,2-a]isoquinolin-7-ium chloride]
- IC50 (yeast α-glucosidase [1]; read-out: IC50): 1.95 ± 0.06 µM
- inhibition at 50 µM (yeast α-glucosidase [1]): 98.7%
- inhibition type (yeast α-glucosidase [4]): competitive
- CC50 at 48 h [5]: 17.7 µM

Structure (SMILES): COc1ccc2cc3[n+](cc2c1OC(=O)Cc1c(Cl)cccc1Cl)CCc1cc2c(cc1-3)OCO2 [Compound 34, 9-(2-(2,6-dichlorophenyl)acetoxy)-10-methoxy-5,6-dihydro-[1,3]dioxolo[4,5-g]isoquinolino[3,2-a]isoquinolin-7-ium chloride]
- IC50 (yeast α-glucosidase [1]; read-out: IC50): 7.3 ± 0.51 µM
- inhibition at 50 µM (yeast α-glucosidase [1]): 93.9%

Structure (SMILES): COc1ccc2cc3[n+](cc2c1OC(=O)C(c1ccccc1)c1ccccc1)CCc1cc2c(cc1-3)OCO2 [Compound 35, 9-(2,2-diphenylacetoxy)-10-methoxy-5,6-dihydro-[1,3]dioxolo[4,5-g]isoquinolino[3,2-a]isoquinolin-7-ium chloride]
- IC50 (yeast α-glucosidase [1]; read-out: IC50): 6.19 ± 0.32 µM
- inhibition at 50 µM (yeast α-glucosidase [1]): 95.2%

Structure (SMILES): O=c1c2ccccc2oc2cc(O)cc(O)c12 [Compound X1, 1,3-dihydroxyxanthone]
- IC50 (yeast α-glucosidase [6]): 145 µM

Structure (SMILES): CC(C)(C)[Si](C)(C)Oc1ccc(C(=O)Oc2cc(O)c3c(=O)c4ccccc4oc3c2)cc1 [Compound X2, 3-Arylacyloxyxanthone]
- IC50 (yeast α-glucosidase [6]): 10.6 µM
